Source: patent US10344034B2, “Pyrazolopyrimidone or Pyrrolotriazone derivatives, method of preparing same, and pharmaceutical applications thereof” (Shanghai Hengrui Pharmaceutical Co., Ltd., priority 2013, dated 2019)

Target: human GnRHr (Homo sapiens (Human), UniProt P30968)
Assay: Human GnRHr (GnRH receptor) activity assay, Fluo-4 calcium signal in Human GnRHr/CHO stably transfected cell lines
Assay type: cell-based
Details: Human GnRHr/CHO cells, GnRH polypeptide stimulant
Protocol: Test Example 1. Human GnRHr (GnRH Receptor) Activity Assay of the Present Compounds.
In vitro GnRHr protein activity was tested by the following methods.
This assay was used to determine the inhibition effect of the present compound on the activity of human GnRHr protein expressed by Human GnRHr/CHO stably transfected cell lines.
A mammalian expression vector containing the human GnRHr gene was transferred into CHO cells by adding Lipofectamine® LTX reagent containing Plus™. Antibiotics were added the next day for screening to pick out the monoclonal cell lines.
The Human GnRHr/CHO stably transfected cell lines were inoculated in 96-well plates with an inoculation density of 25,000 cells/well. The culture medium was removed the next day, and loading buffer containing Fluo-4 dye was added to the plate (100 μL/well) and incubated for 30 minutes at 37° C. The plate was moved to room temperature and equilibrated for 10 minutes. Each compound was diluted with DMSO to seven concentration gradients of 100 μM, 10 μM, 1 μM, 0.1 μM, 0.01 μM, 0.001 μM, 0.0001 μM. Then, 1 μl of each gradient was added to each well and incubated for 10 minutes at room temperature. After automated addition of 50 μL of GnRH polypeptide stimulant solution, the value was immediately detected at 494/516 […] by a microplate reader (flexstation 3). IC50 values of the compounds were calculated by software from different fluorescence signals at various corresponding concentrations.
The inhibitory activity of the present compounds on human GnRHr was determined by the above assay, and IC50 values are shown in Table 1.

human GnRHr, sequence (P30968 whole entry): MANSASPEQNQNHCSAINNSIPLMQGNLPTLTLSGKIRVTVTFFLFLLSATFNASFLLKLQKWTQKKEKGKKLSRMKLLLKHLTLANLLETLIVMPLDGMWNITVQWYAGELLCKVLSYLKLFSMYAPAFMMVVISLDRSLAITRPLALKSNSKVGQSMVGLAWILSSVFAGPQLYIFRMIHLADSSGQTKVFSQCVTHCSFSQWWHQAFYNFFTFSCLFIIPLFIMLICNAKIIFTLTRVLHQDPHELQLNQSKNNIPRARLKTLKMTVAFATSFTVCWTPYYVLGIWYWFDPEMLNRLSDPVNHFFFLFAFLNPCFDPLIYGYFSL

Compound CONC(=O)Nc1ccc(-n2nc3c(c2CN(C)C)c(=O)n(-c2ccc(OC)nn2)c(=O)n3Cc2c(F)cccc2F)cc1 [Example 11, 1-(4-(7-(2,6-difluorobenzyl)-3-((dimethylamino)methyl)-5-(6-methoxypyridazin-3-yl)-4,6-dioxo-4,5,6,7-tetrahydro-2H-pyrazolo[3,4-d]pyrimidin-2-yl)phenyl)-3-methoxyurea] has an IC50 of 4.95 nM.
